Experimental data from US20070274951A1, “Combinations comprising HCV protease inhibitor(s) and HCV polymerase inhibitor(s), and methods of treatment related thereto” (priority 2006, published 2007).
Like-named read-outs stand apart in the source and are kept apart here.

Tested on: HCV replicon RNA in replicon cells
Assay: Replicon RNA response to antiviral agent(s), real time PCR (Taqman assay)
Format: cell-based
Details: Hepatitis C virus, read-out: Inhibitor IC50 in replicon cells
Procedure: Replicon RNA response to antiviral agent(s) was examined using the HCV protease inhibitor Formula Ia alone or in combination with HCV NS5B polymerase inhibitors 2′-methyl-adenosine, benzothiadiazine, indole-N-acetamide, or NM 107. Likewise, replicon RNA response to antiviral agent(s) was examined using the HCV protease inhibitor SCH 446211 (SCH 6) alone or in combination with HCV polymerase inhibitor ribavirin.
In brief, replicon cells were seeded at 4000 cells/well in 96-well collagen 1-coated Biocoat plates (Becton Dickinson). At 24 hrs post-seeding, replicon cells were treated with the requisite anti-viral agent(s). The final concentration of DMSO was 0.5%, fetal bovine serum was 5%, and G418 (an aminoglycoside used as a selective agent) was 500 μg/ml. Media and anti-viral agent(s) were refreshed daily for 3 days, at which point the cells were washed with PBS and lysed in 1× cell lysis buffer (Ambion cat #8721). The replicon RNA level was measured using real time PCR (Taqman assay). The ampicon was located in NS5B. […] (SEQ ID NO: 2); the probe sequence was FAM-labeled […] (SEQ ID NO: 3). GAPDH RNA was used as endogenous control and was amplified in the same reaction as NS5B (multiplex PCR) using primers and VIC-labeled probe recommended by the manufacture (PE Applied Biosystem). The real-time RT-PCR reactions were run on ABI PRISM 7900HT Sequence Detection System using the following program: 48° C. for 30 min, 95° C. for 10 min, 40 cycles of 95° C. for 15 sec, 60° C. for 1 min. The ΔCT values (CT5B−CTGAPDH) were plotted against drug concentration and fitted to the sigmoid dose response model using SAS (SAS Institute Inc.) or Graphpad PRISM software (Graphpad Software Inc.). The IC50 is the drug dose necessary to achieve ΔCT=1 over the projected baseline. […] Alternatively, to quantitate the absolute amount replicon RNA, a standard curve was established by including serially diluted T7 transcripts of replicon RNA in the Taqman assay. All Taqman reagents were from PE Applied Biosystem. […]

## CC(C)(C)NC(=O)N[C@H](C(=O)N1CC2C([C@H]1C(=O)NC(CC1CCC1)C(=O)C(N)=O)C2(C)C)C(C)(C)C (stereo partly drawn) [Formula Ia]
Cells selected by: Formula Ia + 2′-methyl-adenosine
  IC50: 3500 nM
Cells selected by: Formula Ia + Indole-N-acetamide
  IC50: 2400 nM
Cells selected by: No treatment
  IC50: 300 nM
